Laboratory results from patent US20140128352A1, “COMPOUNDS AND METHODS FOR MODULATING MITOCHONDRIAL METABOLISM AND REACTIVE OXYGEN SPECIES PRODUCTION” (Buck Institute for Research on Aging, priority 2012, published 2014).
Entries after “also recorded” stand apart in the source; their conditions may differ. Like-named read-outs stand apart in the source and are kept apart here.

What was measured:
[1] = system: ubiquinone binding site of complex I (IQ); assay: High-throughput screen: ROS production from ubiquinone binding site of complex I (IQ), isolated skeletal muscle mitochondria; type: biochemical, rat; conditions: percent change in ROS from DMSO controls
Procedure: (§1) Skeletal muscle mitochondria were isolated from 5-8 week old female Wistar rats (Harlan Laboratories). Minced muscle was homogenized in buffer containing bacterial protease Type VIII prior to differential centrifugation to separate mitochondria from other tissue components. Unless otherwise stated, freshly isolated muscle mitochondria were assayed in buffer containing 120 mM KCl, 5 mM HEPES, 1 mM EGTA, 0.3% (w/v) bovine serum albumin. Where indicated, CaCl2 was added to yield a final free concentration of 250 nM calcium at pH 7.0 at 37° C.
(§2) Compounds (10 mM in DMSO) were randomly selected from a library of 24,000 compounds obtained from ChemBridge and curated by the lab of Robert Hughes at the Buck Institute. Master screening plates were prepared using a Biomek FX liquid handling workstation (Beckman) to transfer 1 μL of each compound into individual wells on 96-well storage plates (80 compounds per plate). Master plates were sealed with foil and stored at −80° C. Just prior to use, plates were brought to room temperature and diluted 300-fold with standard buffer (13.3X=33.3 μM). To monitor the performance of each assay throughout screening and to provide intra-plate normalization reference points, DMSO negative controls and known mitochondrial inhibitor positive controls were included on each Master compound plate.
(§3) Total amounts of superoxide and H2O2 production were determined fluorometrically as H2O2, without distinguishing between them, in the presence of exogenous superoxide dismutase (25 units/mL final), horseradish peroxidase (1 unit/mL final), and Amplex UltraRed (25 μM final) as described (Affourtit, C. et al. (2012) Measurement of proton leak and electron leak in isolated mitochondria. Methods Mol. Biol. 810: 165-82). Just prior to use, a bulk 3.3X solution was made in standard buffer and distributed into a 2 mL deep well 96-well transfer plate.
To assess the effects of a compound on ROS production from the ubiquinone binding site of complex I (IQ), Start Solution containing 5 mM succinate was distributed into standard 96-well transfer plates. A Biomek FX workstation was programmed to dispense solutions into black 96-well assay plates. Solutions were dispensed to all assay plates in the following order: ROS Detection solution described in Example 3, Mitochondria solution described in Example 1 to a final concentration of 0.1 mg/ml, and Compound dilutions described in Example 2. Duplicate assay plates were made and each was initiated by the addition of 3.3X Start solution containing 5 mM succinate. Plates were incubated in the dark at room temperature for 30-40 minutes before acquiring endpoint fluorescence using a Victor 3V plate reader (Perkin Elmer) equipped with 550/590 nm excitation/emission filters.
The fluorescence values in each well were scaled as the percent change from the intra-plate DMSO controls with the appropriate inhibitor positive controls defined as −100%. Following initial scaling, intra-plate normalized values were subjected to Tukey's two-way median polish to remove row and column dependent positional effects (Malo et al, 2006).

[2] = system: mitochondrial membrane potential (ΔΨm); assay: Membrane potential (ΔΨm) counterscreen with TMRM; conditions: malate, nigericin
[3] = target: T1, flavin binding site of complex I (IF) (Rattus norvegicus, UniProt Q5XIH3); assay: High-throughput screen: ROS production from flavin binding site of complex I (IF); type: biochemical
T1 construct: freshly isolated muscle mitochondria were assayed; from tissue; host or cells: rat skeletal muscle mitochondria (Wistar, Harlan Laboratories)
Procedure: as §1
Master screening plates were prepared using a Biomek FX liquid handling workstation (Beckman) to transfer 1 μL of each compound into individual wells on 96-well storage plates (80 compounds per plate). […] Just prior to use, plates were brought to room temperature and diluted 300-fold with standard buffer (13.3X=33.3 μM). To monitor the performance of each assay throughout screening and to provide intra-plate normalization reference points, DMSO negative controls and known mitochondrial inhibitor positive controls were included on each Master compound plate.
as §3
To assess the effects of a compound on ROS production from the flavin binding site of complex I (IF), Start Solution containing 5 mM glutamate, 5 mM malate and 4 μM rotenone was distributed into standard 96-well transfer plates. A Biomek FX workstation was programmed to dispense solutions into black 96-well assay plates. Solutions were dispensed to all assay plates in the following order: ROS Detection solution described in Example 3, Mitochondria solution described in Example 1 to a final concentration of 0.3 mg/ml, and Compound dilutions described in Example 2. Duplicate assay plates were made and each was initiated by the addition of 3.3X Start solution containing 5 mM glutamate, 5 mM malate and 4 μM rotenone. Plates were incubated in the dark at room temperature for 30-40 minutes before acquiring endpoint fluorescence using a Victor 3V plate reader (Perkin Elmer) equipped with 550/590 nm excitation/emission filters.
The fluorescence values in each well were scaled as the percent change from the intra-plate DMSO controls with the appropriate inhibitor positive controls defined as −100%. Following initial scaling, intra-plate normalized values were subjected to Tukey's two-way median polish to remove row and column dependent positional effects (Malo, N. et al. (2006) Statistical practice in high-throughput screening data analysis. Nat. Biotechnol. 24(2): 167-75).

[4] = target: T2, site IF (Rattus norvegicus, UniProt Q5XIH3); assay: Retest of IF ROS production (expanded microplate panel); type: biochemical
T2 construct: freshly isolated muscle mitochondria were assayed; from tissue; host or cells: rat skeletal muscle mitochondria (Wistar, Harlan Laboratories)
Procedure: Compounds identified as site-selective hits as well as structural analogs were re-sourced from ChemBridge and dissolved in DMSO as 80 mM stocks. Master Titration Plates were prepared manually by serially diluting 80 mM compound stocks between 0.08 and 80 mM on 96-well microplates. Four compounds were titrated in duplicate on each plate. Additional DMSO controls were interspersed across these plates to serve as local normalization controls during analysis since two-way median polishing was not appropriate. Just prior to use, compounds were diluted 100-fold with standard buffer (10X). The same known inhibitor positive controls were included on each plate as during high-throughput screening. The five core ROS assays and single ΔΨm assay were carried out as in the initial high-throughput screen. In addition, several assays were included to help validate the specificity of the compounds for a given site of production. […] The use of different substrates was designed to reveal compounds that disrupt mitochondrial function in a substrate specific manner. […] Most frequently, these changes involved the use of different substrates to supply electrons from an alternative entry point in the chain. If a site of ROS production is being targeted selectively by a compound, then in many cases the supply of electrons should not influence the effectiveness of this compound at suppressing ROS production. […] The fluorescence values in each well were scaled in relation to the intra-plate DMSO and known inhibitor controls as in the high-throughput screen except that median values for local interspersed DMSO wells (3-6 wells) were used rather than just the 8 DMSO wells in columns 1 and 12. This normalization was applied in place of the two-way median polish used during high-throughput screening to minimize row and column effects. […] At this stage, strong candidates were not necessarily excluded from further testing if subtle off-target effects were observed (e.g. loss of specificity or signs of general inhibition at the highest concentrations). Rather, these candidates were often pursued for more detailed mechanistic studies with the expectation that subsequent structure activity analysis would provide insight into which structurally related compounds would provide the optimal specificity for a given site of production.

[5] = target: T3, glycerol-3-phosphate dehydrogenase (GPDH) (Rattus norvegicus, UniProt P35571); assay: High-throughput screen: ROS production from glycerol-3-phosphate dehydrogenase (GPDH); type: biochemical; design: inhibition: dose or concentration left out as unconfirmed
T3 construct: The activity of GPDH in intact mitochondria (0.3 mg/mL) was measured; from tissue; host or cells: rat skeletal muscle mitochondria (Wistar, Harlan Laboratories)
T3 sequence (P35571 43-727): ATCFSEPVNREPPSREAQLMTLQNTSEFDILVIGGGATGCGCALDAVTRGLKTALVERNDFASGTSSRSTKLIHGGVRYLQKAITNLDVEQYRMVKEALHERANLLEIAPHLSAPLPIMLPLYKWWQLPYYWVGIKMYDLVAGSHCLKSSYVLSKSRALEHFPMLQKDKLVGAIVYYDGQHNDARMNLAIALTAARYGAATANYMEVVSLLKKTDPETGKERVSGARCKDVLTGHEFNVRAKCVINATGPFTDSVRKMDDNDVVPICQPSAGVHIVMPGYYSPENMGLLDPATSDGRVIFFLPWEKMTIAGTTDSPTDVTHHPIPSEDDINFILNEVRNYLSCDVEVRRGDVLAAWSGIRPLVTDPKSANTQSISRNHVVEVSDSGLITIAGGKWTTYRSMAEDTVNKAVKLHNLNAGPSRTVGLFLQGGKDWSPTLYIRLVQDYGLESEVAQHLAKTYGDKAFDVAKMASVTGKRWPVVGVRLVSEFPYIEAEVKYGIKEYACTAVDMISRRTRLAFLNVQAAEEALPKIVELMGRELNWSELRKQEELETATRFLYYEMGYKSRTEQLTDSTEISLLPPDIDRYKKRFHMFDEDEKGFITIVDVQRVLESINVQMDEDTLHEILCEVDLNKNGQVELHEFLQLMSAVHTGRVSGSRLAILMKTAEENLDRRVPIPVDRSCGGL

[6] = target: T4, outer ubiquinone binding site of complex III (IIIQO) (Rattus norvegicus, UniProt P00159+P20788); assay: High-throughput screen: ROS production from outer ubiquinone binding site of complex III (IIIQO); type: biochemical; conditions: for IIIQO: Table 8
T4 construct: freshly isolated muscle mitochondria were assayed; from tissue; host or cells: rat skeletal muscle mitochondria (Wistar, Harlan Laboratories)
Procedure: as §1, §2, §3
To assess the effects of a compound on ROS production from the outer ubiquinone binding site of complex III (IIIQO), Start Solution containing 5 mM succinate, 4 μM rotenone and 2.5 μM antimycin A was distributed into standard 96-well transfer plates. A Biomek FX workstation was programmed to dispense solutions into black 96-well assay plates. Solutions were dispensed to all assay plates in the following order: ROS Detection solution described in Example 3, Mitochondria solution described in Example 1 to a final concentration of 0.1 mg/ml, and Compound dilutions described in Example 2. Duplicate assay plates were made and each was initiated by the addition of 3.3X Start solution containing 5 mM succinate, 4 μM rotenone and 2.5 μM antimycin A. Plates were incubated in the dark at room temperature for 30-40 minutes before acquiring endpoint fluorescence using a Victor 3V plate reader (Perkin Elmer) equipped with 550/590 nm excitation/emission filters.
(§4) The fluorescence values in each well were scaled as the percent change from the intra-plate DMSO controls with the appropriate inhibitor positive controls defined as −100%. Following initial scaling, intra-plate normalized values were subjected to Tukey's two-way median polish to remove row and column dependent positional effects (Malo et al., 2006).

[7] = system: complex I; assay: Rate of NAD(P)H reduction via complex I versus observed ROS production; type: biochemical, rat
Procedure: To compare candidate IQ ROS inhibitors with mitochondrial inhibitors known to disrupt complex I activity (e.g. rotenone) or oxidize the electron transport chain (e.g. the uncoupler FCCP), the rate of NAD(P)H reduction via complex I was measured when isolated mitochondria were provided with saturating concentrations of the complex II substrate succinate (5 mM) and subsaturating levels of glutamate (1 mM) to facilitate full activation of complex II by oxaloacetate removal. […] These conditions allow electron and proton fluxes through complex Ito reverse and be directed predominantly toward the matrix. Addition of succinate causes a rapid increase in the reduction state of the matrix NAD(P)H pool that can be monitored as described above. The rate of NAD(P)H reduction is therefore a measure of electron flux through complex I for which direct comparisons can be made under identical conditions to effects on rates of ROS production.

[8] = target: T5, succinate dehydrogenase/complex II (SDH) (Rattus norvegicus, UniProt P21913+Q641Z9+Q6PCT8+Q920L2); assay: High-throughput screen: ROS production from succinate dehydrogenase/complex II (SDH); type: biochemical; conditions: percent change in ROS from DMSO controls; for inhibition at 2.5 µM: Table 7
T5 construct: freshly isolated muscle mitochondria were assayed; from tissue; host or cells: rat skeletal muscle mitochondria (Wistar, Harlan Laboratories)
Procedure: as §1
Just prior to use, plates were brought to room temperature and diluted 300-fold with standard buffer (13.3X=33.3 μM). To monitor the performance of each assay throughout screening and to provide intra-plate normalization reference points, DMSO negative controls and known mitochondrial inhibitor positive controls were included on each Master compound plate.
as §3
To assess the effects of a compound on ROS production from succinate dehydrogenase/complex II (SDH), Start Solution containing 15 μM palmitoyl carnitine, 2.5 μM antimycin A and 2 μM myxothiazol was distributed into standard 96-well transfer plates. A Biomek FX workstation was programmed to dispense solutions into black 96-well assay plates. Solutions were dispensed to all assay plates in the following order: ROS Detection solution described in Example 3, Mitochondria solution described in Example 1 to a final concentration of 0.3 mg/ml, and Compound dilutions described in Example 2. Duplicate assay plates were made and each was initiated by the addition of 3.3X Start solution containing 15 μM palmitoyl carnitine, 2.5 μM antimycin A and 2 μM myxothiazol. Plates were incubated in the dark at room temperature for 30-40 minutes before acquiring endpoint fluorescence using a Victor 3V plate reader (Perkin Elmer) equipped with 550/590 nm excitation/emission filters.
as §4

[9] = target: T6, GPDH (Rattus norvegicus, UniProt P35571); assay: Retest of GPDH ROS production (expanded microplate panel / cuvette); type: biochemical; conditions: microplate or cuvette
T6 construct: from tissue; host or cells: rat skeletal muscle mitochondria (Wistar, Harlan Laboratories)
T6 sequence (P35571 43-727): T3 sequence (P35571 43-727)
Procedure: Compounds identified as site-selective hits as well as structural analogs were re-sourced from ChemBridge and dissolved in DMSO as 80 mM stocks. Master Titration Plates were prepared manually by serially diluting 80 mM compound stocks between 0.08 and 80 mM on 96-well microplates. Four compounds were titrated in duplicate on each plate. Additional DMSO controls were interspersed across these plates to serve as local normalization controls during analysis since two-way median polishing was not appropriate. Just prior to use, compounds were diluted 100-fold with standard buffer (10X). The same known inhibitor positive controls were included on each plate as during high-throughput screening.
The five core ROS assays and single ΔΨm assay were carried out as in the initial high-throughput screen. In addition, several assays were included to help validate the specificity of the compounds for a given site of production. All compounds were titrated against separate assays targeting IQ ROS and IIIQo ROS using subsaturating (0.5 mM final) succinate. […] Specifically, ΔΨm was monitored separately with 5 mM succinate (in the presence of 4 μM rotenone) in addition to glutamate and malate as before. The use of different substrates was designed to reveal compounds that disrupt mitochondrial function in a substrate specific manner.
Most frequently, these changes involved the use of different substrates to supply electrons from an alternative entry point in the chain. If a site of ROS production is being targeted selectively by a compound, then in many cases the supply of electrons should not influence the effectiveness of this compound at suppressing ROS production. […]
The fluorescence values in each well were scaled in relation to the intra-plate DMSO and known inhibitor controls as in the high-throughput screen except that median values for local interspersed DMSO wells (3-6 wells) were used rather than just the 8 DMSO wells in columns 1 and 12. […]

[10] = Table 3, 5 mM glutamate, 5 mM malate, 4 μM rotenone, compounds 2.5 μM, percent change from DMSO, positive control −100%, read-out: % Reduction in ROS production (IF)
[11] = Table 7, percent change in ROS from DMSO controls, read-out: IF
[12] = Table 8, percent change in ROS from DMSO controls
[13] = Table 9, percent change in ROS from DMSO controls
[14] = Table 7, percent change in ROS from DMSO controls
[15] = Table 7, percent change in ROS from DMSO controls, read-out: IIIQO
[16] = percent change in ROS from DMSO controls
[17] = Table 9, percent change in ROS from DMSO controls, read-out: IIIQo

T1 sequence (Q5XIH3 21-464 limits assumed, one chain of several): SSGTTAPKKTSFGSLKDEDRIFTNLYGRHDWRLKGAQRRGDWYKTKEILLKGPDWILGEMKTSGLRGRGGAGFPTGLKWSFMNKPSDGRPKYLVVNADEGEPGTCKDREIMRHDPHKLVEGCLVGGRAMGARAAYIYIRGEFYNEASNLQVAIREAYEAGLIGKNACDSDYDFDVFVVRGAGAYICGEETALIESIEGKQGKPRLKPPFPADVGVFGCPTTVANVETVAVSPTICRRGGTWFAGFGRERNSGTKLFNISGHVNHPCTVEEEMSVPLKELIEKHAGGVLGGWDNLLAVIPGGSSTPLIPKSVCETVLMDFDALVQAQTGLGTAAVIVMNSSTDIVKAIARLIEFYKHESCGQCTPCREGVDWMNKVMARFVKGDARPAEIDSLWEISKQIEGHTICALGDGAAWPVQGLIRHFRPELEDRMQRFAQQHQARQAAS
T5 sequence (Q920L2 35-656): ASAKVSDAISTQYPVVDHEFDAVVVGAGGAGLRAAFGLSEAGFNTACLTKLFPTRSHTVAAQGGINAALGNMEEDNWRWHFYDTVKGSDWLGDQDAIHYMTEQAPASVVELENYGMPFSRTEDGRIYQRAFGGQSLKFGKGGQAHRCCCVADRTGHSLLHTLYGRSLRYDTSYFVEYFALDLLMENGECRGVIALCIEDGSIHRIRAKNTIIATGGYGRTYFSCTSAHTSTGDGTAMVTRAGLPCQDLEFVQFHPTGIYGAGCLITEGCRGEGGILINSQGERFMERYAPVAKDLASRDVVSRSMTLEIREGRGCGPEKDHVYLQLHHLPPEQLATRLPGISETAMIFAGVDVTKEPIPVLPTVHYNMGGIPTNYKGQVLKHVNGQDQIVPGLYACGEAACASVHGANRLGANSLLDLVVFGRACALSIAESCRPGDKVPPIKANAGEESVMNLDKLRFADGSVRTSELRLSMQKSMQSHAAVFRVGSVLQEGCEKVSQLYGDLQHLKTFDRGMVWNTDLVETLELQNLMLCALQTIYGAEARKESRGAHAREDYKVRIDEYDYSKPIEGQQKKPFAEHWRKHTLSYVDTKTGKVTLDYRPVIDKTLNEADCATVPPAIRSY
T5 sequence (P21913 31-282): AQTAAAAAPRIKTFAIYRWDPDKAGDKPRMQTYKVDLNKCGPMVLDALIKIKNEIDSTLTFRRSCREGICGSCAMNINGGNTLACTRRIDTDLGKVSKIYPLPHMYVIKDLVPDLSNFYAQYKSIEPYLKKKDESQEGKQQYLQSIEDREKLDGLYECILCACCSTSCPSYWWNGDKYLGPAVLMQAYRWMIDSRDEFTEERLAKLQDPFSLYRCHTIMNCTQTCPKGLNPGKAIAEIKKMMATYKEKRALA
T5 sequence (Q641Z9 30-169 limits assumed): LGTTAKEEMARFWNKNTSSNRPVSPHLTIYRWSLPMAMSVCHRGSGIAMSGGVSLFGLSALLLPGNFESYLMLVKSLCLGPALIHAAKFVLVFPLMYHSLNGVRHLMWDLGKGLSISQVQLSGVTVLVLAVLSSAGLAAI
T5 sequence (Q6PCT8 57-159): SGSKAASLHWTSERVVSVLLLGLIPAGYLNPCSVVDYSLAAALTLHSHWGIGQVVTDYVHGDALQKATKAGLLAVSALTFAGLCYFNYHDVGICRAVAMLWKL
T2 sequence (Q5XIH3 21-464 limits assumed): as the sequence (Q5XIH3 21-464 limits assumed, one chain of several) above

SMILES | IQ ([1]; Table 7) | IQ ([1]; Table 8) | IQ ([1]; Table 9) | ΔΨm ([2]; Table 8, glutamate) | ΔΨm ([2]; Table 9, glutamate) | inhibition at 2.5 µM [3, 10] [%] | inhibition at 2.5 µM [3, 11] [%] | IF [3, 12] | IF [3, 13] | inhibition [5, 14] [%] | GPDH [5, 12] | GPDH [5, 13] | inhibition at 2.5 µM [6, 15] [%] | IIIQO [6, 16] | inhibition at 2.5 µM [6, 17] [%] | inhibition at 2.5 µM [8] [%] | effect on GPDH ROS on retesting [9] | SDH ([8]; Table 8) | SDH ([8]; Table 9) | other results
CN(C)CCCN(CCCN(C)C)Cc1cccnc1 [Compound 33] | −0.5 | −0.5 | −0.5 | 0.4 | 0.4 | 3 | 3 | −3.0 | −3.0 | 12.7 | −12.7 | −12.7 | -6.1 | 6.1 | -6.1 |  |  |  |  | effect on IF ROS and selectivity for site IF [4]: further improved selectivity for IF without compromising ΔΨm
N#CC(C#N)=NNc1ccc(OC(F)(F)F)cc1 [FCCP] |  |  |  |  |  |  |  |  |  |  |  |  |  |  |  |  |  |  |  | effect on rates of NADH reduction and ROS production [7]: progressively inhibited both activities; also recorded: suppresses observed ROS to near zero
COc1ccc(/C=C2\C(=O)NC(=S)N(c3ccccc3)C2=O)cc1Br [Compound 52] | −0.2 |  |  |  |  |  | 2.2 |  |  |  |  |  |  |  |  | -4.6 | did not show any effect on GPDH when retested |  |  | inhibition at 2.5 µM ([5]; Table 7, percent change in ROS from DMSO controls, read-out: GPDH): 0%; inhibition at 2.5 µM ([5]; read-out: % Reduction in ROS Production (GPDH)): 14.6%; inhibition at 2.5 µM ([6]; read-out: IIIQO): 0.4%
C=C(C)[C@H]1Cc2c(ccc3c2O[C@@H]2COc4cc(OC)c(OC)cc4[C@@H]2C3=O)O1 [rotenone] |  |  |  |  |  |  |  |  |  |  |  |  |  |  |  |  |  |  |  | effect on rates of NADH reduction and ROS production ([7]; succinate with low glutamate, range of concentrations): progressively inhibited both activities; effect on rates of NADH reduction and ROS production ([7]; succinate with low glutamate, range of concentrations, listed as Rotenone): eliminates all IQ ROS production but not that from underlying IF and IIIQo
O=C(O)C1CCCCC1C(=O)NC1CCCCCCC1 (stereo not shown) [Compound 30] | −0.7 | −0.7 | −0.7 | −1.0 | −1.0 | 36.9 | 36.9 | −36.9 | −36.9 | -0.7 | 0.7 | 0.7 | -0.1 | 0.1 | -0.1 | -3.3 |  | 3.3 | 3.3 | inhibition at 2.5 µM ([4]; 2.5 μM): 37%
O=C(O)CCC(=O)Nc1ccc(-c2nc3ccccc3o2)cc1 [Compound 50] | 0.8 | 0.8 | 0.8 | 0.8 | 0.8 |  | 2.6 | −2.6 | −2.6 | 12.2 | −12.2 | −12.2 | -2.5 | 2.5 | -2.5 | -2.1 | retested well as selective inhibitors of GPDH ROS | 2.1 | 2.1 | inhibition at 2.5 µM ([5]; Table 6, 25 mM glycerol phosphate, rotenone, antimycin A, malonate, myxothiazol, compounds 2.5 μM, scaled to IQ positive controls, read-out: % Reduction in ROS Production (GPDH)): 12.2%
